Measurements: patent US10246420B2, “Pyrazole derivatives” (BAYER CROPSCIENCE AKTIENGESELLSCHAFT, priority 2014, dated 2019)

Test system: Alternaria solani
Assay: Biological Example C1 (comparative): in vivo preventive test on Alternaria solani (tomatoes)
Details: rate of application 50 ppm, evaluated 3 days after inoculation
Procedure: (§1) To produce a suitable preparation of active compound, 1 part by weight of active compound is mixed with the stated amounts of solvent and emulsifier, and the concentrate is diluted with water to the desired concentration.
To test for preventive activity, young plants are sprayed with the preparation of active compound at the stated rate of application. After the spray coating has dried on, the plants are inoculated with an aqueous spore suspension of Alternaria solani. The plants are then placed in an incubation cabinet at approximately 20° C. and a relative atmospheric humidity of 100%.
The test is evaluated 3 days after the inoculation. 0% means an efficacy which corresponds to that of the untreated control while an efficacy of 100% means that no disease is observed.
Work on `CCCOc1cc(F)cc(F)c1Nc1c(-c2ccc(F)cc2Cl)c(C)nn1C` [drawing 18, reference compound] yielded an Efficacy in % of 40%.
For `C#CCOc1cc(F)cc(F)c1Nc1c(-c2ccc(F)cc2Cl)c(C)nn1C` [Example I-01], the Efficacy in % was 96%.

Test system: Sphaerotheca fuliginea
Assay: Biological Example C3 (comparative): in vivo preventive test on Sphaerotheca fuliginea (cucumbers)
Details: rate of application 50 ppm, evaluated 7 days after inoculation
Procedure: as §1
To test for preventive activity, young plants are sprayed with the preparation of active compound at the stated rate of application. After the spray coating has dried on, the plants are inoculated with an aqueous spore suspension of Sphaerotheca fuliginea. The plants are then placed in a greenhouse at approximately 23° C. and a relative atmospheric humidity of approximately 70%.
(§2) The test is evaluated 7 days after the inoculation. 0% means an efficacy which corresponds to that of the untreated control, while an efficacy of 100% means that no disease is observed.
`CCCOc1cc(F)cc(F)c1Nc1c(-c2ccc(F)cc2Cl)c(C)nn1C` [drawing 22, reference compound] showed an Efficacy in % of 10%.
With `C#CCOc1cc(F)cc(F)c1Nc1c(-c2ccc(F)cc2Cl)c(C)nn1C` [Example I-01] the Efficacy in % was 98%.

Test system: Phakopsora pachyrhizi
Assay: Biological Example C2 (comparative): in vivo preventive test on Phakopsora pachyrhizi (soybeans)
Details: rate of application 250 ppm, evaluated 7 days after inoculation
Procedure: as §1
To test for preventive activity, young plants are sprayed with the preparation of active compound at the stated rate of application. After the spray coating has dried on, the plants are inoculated with an aqueous spore suspension of the causal agent of soybean rust (Phakopsora pachyrhizi) and stay for 24 h without light in an incubation cabinet at approximately 24° C. and a relative atmospheric humidity of 95%. The plants remain in the incubation cabinet at approximately 24° C. and a relative atmospheric humidity of approximately 80% and a day/night interval of 12 h.
as §2
For `C#CCOc1cc(F)cc(F)c1Nc1c(-c2ccc(F)cc2Cl)c(C)nn1C` [Example I-01], the Efficacy in % was 94%.
For `CCCOc1cc(F)cc(F)c1Nc1c(-c2ccc(F)cc2Cl)c(C)nn1C` [drawing 20, reference compound], the Efficacy in % was 53%.

Test system: not listed separately
Assay: Log P by HPLC on reversed phase columns (EEC directive 79/831 Annex V.A8)
Format: physicochemical
Details: not given
Procedure: Measurement of Log P values was performed according to EEC directive 79/831 Annex V.A8 by HPLC (High Performance Liquid Chromatography) on reversed phase columns with the following methods:
[^a] Log P value is determined by measurement of LC-UV, in an acidic range, with 0.1% formic acid in water and acetonitrile as eluent (linear gradient from 10% acetonitrile to 95% acetonitrile).
[^b] Log P value is determined by measurement of LC-UV, in a neutral range, with 0.001 molar ammonium acetate solution in water and acetonitrile as eluent (linear gradient from 10% acetonitrile to 95% acetonitrile).
[^c] Log P value is determined by measurement of LC-UV, in an acidic range, with 0.1% phosphoric acid and acetonitrile as eluent (linear gradient from 10% acetonitrile to 95% acetonitrile).
Calibration was done with straight-chain alkan-2-ones (with 3 to 16 carbon atoms) with known Log P values (measurement of Log P values using retention times with linear interpolation between successive alkanones). Lambda-max-values were determined using UV-spectra from 200 nm to 400 nm and the peak values of the chromatographic signals.
With `C#CCOc1cc(F)cc(F)c1Nc1c(-c2ccc(F)cc2F)c(C)nn1C` [Example I-16] the “LogP [a]” value was 3.07^[a].
With `C#CCOc1ccc(F)c(Nc2c(-c3ccc(F)cc3Cl)c(C)nn2C)c1` [Example I-38] the “LogP [a]” value was 3.33^[a];, the “LogP [b]” value was 3.27^[b]; and the “LogP [c]” value was 3.20^[c].
In the case of `C#CCOc1cc(F)cc(F)c1Nc1c(-c2c(F)cc(F)cc2F)c(C)nn1C` [Example I-59], the “LogP [a]” value is reported as 3.10^[a].
For `C#CCOc1cc(F)c(Nc2c(-c3ccc(Cl)nc3)c(C)nn2C)c(F)c1` [Example I-20], the “LogP [a]” value was 2.56^[a]; and the “LogP [b]” value was 2.54^[b].
For `C#CCOc1ccccc1Nc1c(-c2ccc(F)cc2Cl)c(C)nn1C` [Example I-49], the “LogP [a]” value was 3.53^[a].
With `C#CCOc1cc(F)cc(F)c1Nc1c(-c2ccc(Cl)cc2Cl)c(C)nn1C` [Example I-05] the “LogP [a]” value was 3.69^[a].
In the case of `C#CCOc1ccc(Nc2c(-c3ccc(F)cc3Cl)c(C)nn2C)c(F)c1` [Example I-29], the “LogP [a]” value is reported as 3.25^[a]; and the “LogP [b]” value is reported as 3.22^[b].
With `C=CCOc1cc(F)c(Nc2c(-c3ccc(F)cc3Cl)c(C)nn2C)cc1F` [Example I-34] the “LogP [a]” value was 3.74^[a];, the “LogP [b]” value was 3.66^[b]; and the “LogP [c]” value was 3.60^[c].
With `C#CCOc1cc(F)cc(F)c1Nc1c(-c2c(F)cc(Cl)cc2F)c(C)nn1C` [Example I-60] the “LogP [a]” value was 3.49^[a].
For `C#CCOc1cc(F)c(Nc2c(-c3ccccc3F)c(C)nn2C)c(F)c1` [Example I-06], the “LogP [a]” value was 2.78^[a].
In the case of `C=CCOc1ccc(Nc2c(-c3ccc(F)cc3Cl)c(C)nn2C)cc1F` [Example I-35], the “LogP [a]” value is reported as 3.61^[a];, the “LogP [b]” value is reported as 3.56^[b]; and the “LogP [c]” value is reported as 3.50^[c].
For `C=CCOc1cc(C)ccc1Nc1c(-c2ccc(F)cc2Br)c(C)nn1C` [Example I-46], the “LogP [a]” value was 4.39^[a].
For `C=CCOc1ccc(F)cc1N=C=S` [Z-ii-16], the “LogP [a]” value was 4.24^[a].
In the case of `C=CCOc1cc(F)c(Nc2c(-c3ccc(Cl)nc3)c(C)nn2C)c(F)c1` [Example I-21], the “LogP [a]” value is reported as 2.95^[a]; and the “LogP [b]” value is reported as 2.92^[b].
For `C#CCOc1cc(F)c(Nc2c(-c3ccc(F)cc3Cl)c(C)nn2C)cc1F` [Example I-33], the “LogP [a]” value was 3.33^[a];, the “LogP [b]” value was 3.23^[b]; and the “LogP [c]” value was 3.20^[c].
For `C=CCOc1ccc(Nc2c(-c3ccc(F)cc3Cl)c(C)nn2C)cc1` [Example I-30], the “LogP [a]” value was 3.51^[a]; and the “LogP [b]” value was 3.52^[b].
For `C=CCOc1cc(F)c(N=C=S)c(F)c1` [Z-ii-01], the “LogP [a]” value was 4.54^[a].
In the case of `C#CCOc1cc(C)ccc1N=C=S` [Z-ii-18], the “LogP [a]” value is reported as 3.82^[a].
In the case of `C#CCOc1cc(F)c(Nc2c(-c3ccc(F)cc3Cl)c(C)nn2C)c(F)c1` [Example I-03], the “LogP [a]” value is reported as 3.09^[a]; and the “LogP [c]” value is reported as 2.90^[c].
For `C#CCOc1ccc(Nc2c(-c3ccc(F)cc3Cl)c(C)nn2C)cc1F` [Example I-36], the “LogP [a]” value was 3.17^[a];, the “LogP [b]” value was 3.14^[b]; and the “LogP [c]” value was 3.10^[c].
With `C#CCOc1cc(C)ccc1Nc1c(-c2ccc(Cl)cc2Cl)c(C)nn1C` [Example I-58] the “LogP [a]” value was 4.30^[a].

Same assay, conditions: LC-UV, acidic range, 0.1% formic acid in water and acetonitrile as eluent; read-out: LogP [a]
For `COc1ccc(CC(C)=O)c(F)c1` [Z-iv-02, 1-(2-fluoro-4-methoxyphenyl)acetone], the chromatographic logP was 1.95.

Same assay, conditions: reversed phase HPLC columns, LC-UV, acidic range, 0.1% formic acid in water and acetonitrile as eluent; read-out: LogP [a]
For `C#CCOc1cc(F)cc(F)c1Nc1c(-c2ccc(F)cc2Cl)c(C)nn1C` [Example I-01], the chromatographic logP was 3.26.
With `C#CCOc1cc(F)cc(F)c1Nc1c(-c2ccc(OCC=C)cc2F)c(C)nn1C` [Example I-22, 4-[4-(Allyloxy)-2-fluorophenyl]-N-[2,4-difluoro-6-(prop-2-yn-1-yloxy)phenyl]-1,3-dimethyl-1H-pyrazol-5-amine] the chromatographic logP was 3.3.

Same assay, conditions: reversed phase HPLC columns, LC-UV, acidic range, 0.1% phosphoric acid and acetonitrile as eluent; read-out: LogP [c]
`C#CCOc1cc(F)cc(F)c1Nc1c(-c2ccc(F)cc2Cl)c(C)nn1C` [Example I-01] showed a chromatographic logP of 3.1.
